One series deals with R/R B-NHL. Nature of the series: Ongoing clinical trial of epcoritamab monotherapy (NCT03625037). In kind it is in vivo. An excerpt:
Epcoritamab as monotherapy is currently in a clinical trial for the treatment of relapsed/refractory (R/R) (ClinicalTrials.gov Identifier: NCT03625037).

Series [1] has as its system R/R DLBCL eligible for ASCT. It is filed as in vivo. The conditions noted are these: in combination with R-DHAX/C, preliminary. The method, then:
The trial is conducted in 2 parts: dose escalation (Part 1) and expansion (Part 2). Subjects participate in only one part. Both parts consist of a screening period, a treatment period, a safety follow-up period, and a survival follow-up period.
Epcoritamab is initially be administered in combination with R-DHAX/C in a 3-subject cohort. DLTs are evaluated during the first 28 days.
Dexamethasone (40 mg) is administered intravenously or orally on days 1-4 of a cycle once every 3 weeks (Q3W) for cycles 1-3. Cytarabine (2 g/m^2) is administered intravenously on day 1 (usually over 3 hours), repeated after 12 hours (may result in a second dose on day 2 depending on timing of first dose), once every 3 weeks (Q3W) for cycles 1-3. […] Carboplatin (for DHAC) (AUC=5 mg/ml/min; Calvert's formula) is administered intravenously on day 1 once every 3 weeks (Q3W) for cycles 1-3.
CRS is graded according to the ASTCT grading for CRS (Tables 6 and 7), and for treatment of CRS, subjects should receive supportive care. […]

The test system of series [2] is CD20-expressing Raji-luc tumor cells. The conditions noted are these: even in the presence of an excess of rituximab variant with inert Fc domain (IgG1-RTX-FEAR); cited from earlier work.
Series [3] relates to primary DLBCL and follicular lymphoma patient biopsies. The conditions noted are these: cited from earlier work.

Read-outs that look alike come from different tables or passages of the source.

In the case of “epcoritamab: IgG1 bispecific CD3xCD20 antibody, heavy/light chain pairs SEQ ID NOs: 24/25 and 26/27; CAS 2134641-34-0”, in the series on R/R B-NHL (human, in vivo), the tolerated dose result was “at least 48 mg”. Besides, the dose-limiting toxicities entry in the series with R/R B-NHL (monotherapy, R/R B-NHL patients, preliminary data) is given as “no dose-limiting toxicities reported”. Besides, the responders observed in series [1] (escalation phase, as of Sep. 8, 2021, total of 22 patients dosed, non-validated) was 4; in series [1] (expansion phase 48 mg, as of Sep. 8, 2021, response data not completely entered), 0. In addition, in series [2], the “tumor growth in the xenograft model” value is listed as “effectively reduce tumor growth”. The T-cell-mediated cytotoxicity entry in series [3] (biopsies taken a certain amount of time after administration of an anti-CD20 antibody) is recorded as “induced T-cell-mediated cytotoxicity”. For the same substance, the tumor cell kill entry in series [3] (biopsy taken 2 weeks after administering the anti-CD20 antibody) was “up to 40%”.

The values above are taken from patent publication US20230355753A1, “BISPECIFIC ANTIBODY AGAINST CD3 AND CD20 IN COMBINATION THERAPY FOR TREATING DIFFUSE LARGE B-CELL LYMPHOMA” (GENMAB A/S, priority 2020, published 2023).
